According to US8802114B2, “Pharmaceutical compositions of iron for oral administration” (priority 2011, dated 2014):

Columns and labels:
[1] = Sodium caprate (C10) solution compatibility of iron compounds, with centrifugation test for precipitation; assay type: physicochemical; details: in 55 mg/mL sodium caprate (C10)
Description: A test for precipitation was carried out. The solution formulations were centrifuged initially at 1000 rpm for 5 minutes. […] They were further centrifuged at 5000 rpm for 5 minutes.

[2] = Solution stability of sodium EDTA Fe+3 chelate with sodium caprate (visual observation); assay type: physicochemical; details: sodium caprate 55 mg/mL

Row | Compound | Sodium caprate solution compatibility (observation) [1] | Compatibility with sodium caprate formulation (pre-formulation) [2]
1 | NCC(=O)[O-].NCC(=O)[O-].[Fe+2] [Ferrous Bisglycinate (Ferrochel), Ferrous Bisglycinate] | precipitates in the presence of C10 | 
2 | O=C(O)CN(CCN(CC(=O)O)CC(=O)O)CC(=O)O.[Fe+3].[Na+] [sodium EDTA iron chelate, ethylenediaminetetraacetic acid ferric sodium] |  | no gross incompatibility
3 | Ferrous Gluconate [Ferrous Gluconate FCC/USP*] | C10 incompatibility | 
